What was measured:
ATase1 mRNA = experiment: Real-time quantitative PCR of ATase1 mRNA after ceramide treatment; format: cell-based, human; conditions: H4 and SH-SY5Y cells; C6-ceramide 10 μM; seen as early as 4 hours, still evident after 4 days
Description: (§1) Chinese Hamster Ovary (CHO) cells were grown in DMEM (Gibco BRL) supplemented with 10% fetal bovine serum (FBS) and penicillin/streptomycin (Mediatech, Inc., Herndon, Va.) as described before (Puglielli et al., 2001, Nat. Cell Biol. 3: 905-912; Puglielli et al., 2003, J. Biol. Chem. 278: 19777-19783). Cells were maintained in a humidified atmosphere with 5% CO2. For ceramide treatment, C6-ceramide (simply called “ceramide”) was administered in the absence of serum and at the final concentration of 10 μM; treatment was started when cells were ˜80% confluent and carried out for the time specified. […]
(§2) RNA quantification was performed by real-time PCR in an ABI PRISM® 7000 Sequence Detection System using SYBR® Green PCR Master Mix (Applied Biosystems). […] Delta-delta Ct values were normalized with those obtained from the amplification of GAPDH and were expressed as fold-change over control. […]
(§3) The 4-hour treatment was performed in the presence of 0.5% fetal bovine serum whereas the 4-days treatment was performed in the presence of 10% fetal bovine serum, as previously described (Puglielli et al., 2003, J. Biol. Chem. 278: 19777-19783; Costantini et al., 2007, Biochem. J. 407: 383-395)). Results are expressed as fold ±S.D. of control (no treatment). […] Results are expressed as fold ±S.D. of age-matched controls.

ATase2 mRNA = experiment: Real-time quantitative PCR of ATase2 mRNA after ceramide treatment; format: cell-based, human; conditions: H4 and SH-SY5Y cells; C6-ceramide 10 μM; seen as early as 4 hours, still evident after 4 days
Description: as §1, §2, §3

BACE1 = conditions: different cell lines; Costantini et al., 2005; cited from earlier work

Structure (SMILES): CCCCCCCCCCCCC/C=C/[C@@H](O)[C@H](CO)NC(=O)CCCCC [ceramide, C6-ceramide]
- mRNA levels of ATase1 (transcription) (ATase1 mRNA): marked activation of transcription
- mRNA levels of ATase2 (transcription) (ATase2 mRNA): marked activation of transcription
- acetylation and stabilization of BACE1 (BACE1): increased acetylation and stabilization of BACE1
